Data from ChEMBL document CHEMBL1133730 (J Med Chem, 2000).

Experiments:
Adenosine receptor A3 [1] = target: T1, Adenosine receptor A3 (Homo sapiens, UniProt P0DMS8); assay: Stimulation of [35S]GTP-gamma-S, against human adenosine A3 receptor; type: functional
T1 sequence (P0DMS8 whole entry): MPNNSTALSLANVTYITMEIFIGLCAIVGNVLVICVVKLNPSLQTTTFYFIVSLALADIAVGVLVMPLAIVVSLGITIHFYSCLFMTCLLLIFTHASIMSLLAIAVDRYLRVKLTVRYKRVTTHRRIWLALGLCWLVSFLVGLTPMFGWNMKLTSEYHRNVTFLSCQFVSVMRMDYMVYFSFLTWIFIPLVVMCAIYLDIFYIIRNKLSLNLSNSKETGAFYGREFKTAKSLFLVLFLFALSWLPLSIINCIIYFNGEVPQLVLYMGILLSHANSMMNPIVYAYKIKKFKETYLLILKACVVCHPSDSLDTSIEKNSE

[2] = target: Adenosine receptors; A1 & A3 (Rattus norvegicus) (UniProt P25099+P28647); assay: Relative binding affinity for Adenosine A1 and A3 receptors; type: protein assay
Adenosine receptor A1 [3] = target: T2, Adenosine receptor A1 (Rattus norvegicus, UniProt P25099)
T2 sequence (P25099 whole entry): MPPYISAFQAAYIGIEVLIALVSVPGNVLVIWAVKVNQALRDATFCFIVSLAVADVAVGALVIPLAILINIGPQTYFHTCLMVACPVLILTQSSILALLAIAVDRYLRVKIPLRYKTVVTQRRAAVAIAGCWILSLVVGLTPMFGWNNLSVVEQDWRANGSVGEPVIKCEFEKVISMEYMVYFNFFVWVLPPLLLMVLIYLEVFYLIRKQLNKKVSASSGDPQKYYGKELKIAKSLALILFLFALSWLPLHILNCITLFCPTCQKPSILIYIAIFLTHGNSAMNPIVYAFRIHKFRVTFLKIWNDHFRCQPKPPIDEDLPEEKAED

[4] = target: Adenosine receptor A2a (Rattus norvegicus) (UniProt P30543); assay: Displacement of [3H]-CGS- 21680 from adenosine A2A receptor of rat striatal membranes at 100 uM; type: cell membranes; conditions: Membrane
Adenosine receptor A2a (Rattus norvegicus), sequence (P30543 whole entry): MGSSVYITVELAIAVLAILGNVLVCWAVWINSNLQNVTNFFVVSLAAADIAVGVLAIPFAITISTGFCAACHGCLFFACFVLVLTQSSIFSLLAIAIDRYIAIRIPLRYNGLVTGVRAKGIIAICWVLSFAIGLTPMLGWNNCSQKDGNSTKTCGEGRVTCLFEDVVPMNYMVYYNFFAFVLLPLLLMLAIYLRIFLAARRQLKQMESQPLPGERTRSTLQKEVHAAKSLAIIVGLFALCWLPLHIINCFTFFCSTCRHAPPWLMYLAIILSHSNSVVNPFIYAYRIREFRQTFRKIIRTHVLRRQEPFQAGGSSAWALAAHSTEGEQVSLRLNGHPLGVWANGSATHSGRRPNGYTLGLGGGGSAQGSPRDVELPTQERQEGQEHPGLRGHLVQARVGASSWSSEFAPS

[5] = target: T3, Adenosine receptor A1 (Homo sapiens) (UniProt P30542); assay: Maximum stimulation against human adenosine A1 receptor
T3 sequence (whole entry): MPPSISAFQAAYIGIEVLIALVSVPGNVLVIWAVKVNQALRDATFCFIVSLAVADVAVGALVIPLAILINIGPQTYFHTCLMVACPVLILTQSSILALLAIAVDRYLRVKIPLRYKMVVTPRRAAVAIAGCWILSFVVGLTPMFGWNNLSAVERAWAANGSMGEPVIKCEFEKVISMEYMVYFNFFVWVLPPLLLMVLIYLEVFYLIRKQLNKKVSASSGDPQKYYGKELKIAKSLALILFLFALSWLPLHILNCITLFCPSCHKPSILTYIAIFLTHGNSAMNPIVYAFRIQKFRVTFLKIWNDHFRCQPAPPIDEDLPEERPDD

Adenosine receptor A1 [6] = target: T4, Adenosine receptor A1 (Homo sapiens, UniProt P30542); assay: Stimulation of [35S]GTP-gamma-S, binding to human adenosine A1 receptor; type: functional
T4 sequence (P30542 whole entry): T3 sequence (whole entry)

Adenosine receptor A3 [7] = target: T1, Adenosine receptor A3; assay: Displacement of [125I]- AB-MECA from human adenosine A3 receptor expressed in HEK cells; type: cell-based, HEK293
[8] = target: T5, Adenosine receptor A3 (Homo sapiens) (UniProt P0DMS8); assay: Maximum stimulation against human adenosine A3 receptor
T5 sequence (whole entry): T1 sequence (P0DMS8 whole entry)

Adenosine receptor A2a [9] = target: Adenosine receptor A2a (Rattus norvegicus, UniProt P30543)
Adenosine receptor A2a (Rattus norvegicus, UniProt P30543), sequence (P30543 whole entry): as the sequence (P30543 whole entry) above

Adenosine receptor A2b = target: T6, Adenosine receptor A2b (Homo sapiens, UniProt P29275); assay: biochemical
T6 sequence (P29275 whole entry): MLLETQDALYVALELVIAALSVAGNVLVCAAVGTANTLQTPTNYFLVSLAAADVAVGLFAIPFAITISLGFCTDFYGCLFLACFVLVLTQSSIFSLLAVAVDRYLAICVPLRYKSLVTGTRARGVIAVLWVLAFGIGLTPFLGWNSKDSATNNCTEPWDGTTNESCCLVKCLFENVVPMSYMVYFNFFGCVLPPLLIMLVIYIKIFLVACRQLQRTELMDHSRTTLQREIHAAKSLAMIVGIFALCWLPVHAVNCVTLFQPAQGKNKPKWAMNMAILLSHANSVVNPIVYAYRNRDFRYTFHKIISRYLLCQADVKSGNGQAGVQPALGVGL

Adenosine receptor A1 [10] = target: T2, Adenosine receptor A1; remark: listed apart in the source
[11] = target: T7, Adenosine receptor A1 (Rattus norvegicus) (UniProt P25099); assay: Maximum stimulation against adenosine A1 receptor of rat cerebral cortical membrane
T7 sequence (whole entry): T2 sequence (P25099 whole entry)

[12] = target: T8, Adenosine receptor A2b (Homo sapiens) (UniProt P29275); assay: Displacement of [3H]- ZM-241385 from human adenosine A2B receptor expressed in HEK cell at 50 uM; type: cell-based; conditions: HEK293
T8 sequence (whole entry): T6 sequence (P29275 whole entry)

Adenosine receptor A2a [13] = target: Adenosine receptor A2a (Homo sapiens, UniProt P29274); assay: Displacement of [3H]ZM241385 from human adenosine A2A receptor expressed in HEK cells.
Adenosine receptor A2a (Homo sapiens, UniProt P29274), sequence (P29274 whole entry): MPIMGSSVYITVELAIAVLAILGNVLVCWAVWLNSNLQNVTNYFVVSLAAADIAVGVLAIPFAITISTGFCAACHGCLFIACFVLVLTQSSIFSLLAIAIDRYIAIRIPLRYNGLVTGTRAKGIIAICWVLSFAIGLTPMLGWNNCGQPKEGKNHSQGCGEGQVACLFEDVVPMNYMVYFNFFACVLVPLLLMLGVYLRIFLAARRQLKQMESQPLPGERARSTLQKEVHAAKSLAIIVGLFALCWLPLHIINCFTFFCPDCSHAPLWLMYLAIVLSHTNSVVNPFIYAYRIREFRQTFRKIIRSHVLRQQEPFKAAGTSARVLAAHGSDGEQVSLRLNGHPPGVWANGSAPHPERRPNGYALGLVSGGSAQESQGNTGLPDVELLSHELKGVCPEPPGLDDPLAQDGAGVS

Adenosine receptor A3 [14] = target: T1, Adenosine receptor A3; assay: Displacement of [125I]- AB-MECA from human adenosine A3 receptor expressed in HEK cell in the absence of ADA; type: cell-based, HEK293
[15] = target: T8, Adenosine receptor A2b (Homo sapiens); assay: Displacement of [3H]ZM241,385 binding to human adenosine A2B receptor expressed in HEK cells at 100 uM; type: cell-based; conditions: HEK293
Adenosine receptor A3 [16] = target: T9, Adenosine receptor A3 (Rattus norvegicus, UniProt P28647); assay: Displacement of [125I]- AB-MECA from rat adenosine A3 receptor expressed in CHO cells; type: cell-based
T9 sequence (P28647 whole entry): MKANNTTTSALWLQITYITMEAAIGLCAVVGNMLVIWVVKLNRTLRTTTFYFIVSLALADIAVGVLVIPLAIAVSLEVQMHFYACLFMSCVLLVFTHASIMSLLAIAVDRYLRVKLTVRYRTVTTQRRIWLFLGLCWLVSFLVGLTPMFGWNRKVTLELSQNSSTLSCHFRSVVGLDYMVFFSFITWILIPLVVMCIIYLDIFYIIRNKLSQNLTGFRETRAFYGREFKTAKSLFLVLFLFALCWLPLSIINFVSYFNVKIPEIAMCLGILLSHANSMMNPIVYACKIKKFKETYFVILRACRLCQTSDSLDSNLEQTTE

[17] = target: T7, Adenosine receptor A1 (Rattus norvegicus); assay: Displacement of [3H]R-PIA from adenosine A1 receptor in rat brain membranes at 100 uM; type: cell membranes

| Structure (SMILES) | EC50 (Adenosine receptor A3 [1]) | Ratio [2] | Ki (Adenosine receptor A1 [3]) | Max [5] | EC50 (Adenosine receptor A1 [6]) | Ki (Adenosine receptor A3 [7]) | Max [8] | Ki (Adenosine receptor A2a [9]) | Max [11] | other results |
| --- | --- | --- | --- | --- | --- | --- | --- | --- | --- | --- |
| OC[C@H]1C[C@@H](n2cnc3c(NCc4cccc(I)c4)ncnc32)[C@H](O)[C@@H]1O | > 10000 nM | 13 | 25900 nM | 5% | > 10000 nM | 1960 nM | 14% | – | – | Displacement [4]: < 10% |
| OC[C@H]1O[C@@H](n2cnc3c(NC4CCCC4)ncnc32)[C@H](O)[C@@H]1O [N6-CYCLOPENTYLADENOSINE] | – | – | – | 100% | – | – | 100% | 857 nM | – | – |
| OC[C@@]12C[C@@H]1[C@@H](n1cnc3c(NC4CCCC4)ncnc31)[C@H](O)[C@@H]2O | > 10000 nM | 0.03 | 5.06 nM | 102% | 21.5 nM | 170 nM | 14% | 6800 nM | 75% | Ki (Adenosine receptor A2b): 139 µM; EC50 (Adenosine receptor A1 [10]): 100 nM |
| CCNC(=O)[C@H]1O[C@@H](n2cnc3c(N)ncnc32)[C@H](O)[C@@H]1O | – | – | – | – | – | – | 100% | – | – | – |
| OC[C@@]12C[C@@H]1[C@@H](n1cnc3c(NCc4cccc(I)c4)ncnc31)[C@H](O)[C@@H]2O | 0.7 nM | – | – | 86% | 218 nM | 4.13 nM | 45.3% | 601 nM | – | Ki (Adenosine receptor A2b): 12.1 µM |
| Nc1ncnc2c1ncn2[C@H]1[C@H](O)[C@H](O)[C@]2(CO)C[C@H]12 | – | 4.2 | 1680 nM | – | – | – | – | – | – | Displacement [12]: 35%; Ki (Adenosine receptor A2a [13]): 22.5 µM; Ki (Adenosine receptor A3 [14]): 0.404 µM |
| OC[C@@]12C[C@@H]1[C@@H](n1cnc3c(NC4CCCC4)nc(Cl)nc31)[C@H](O)[C@@H]2O | > 10000 nM | 0.019 | 8.76 nM | 97% | 31.2 nM | 466 nM | 15% | 3390 nM | 96% | Displacement [15]: 27%; EC50 (Adenosine receptor A1 [10]): 145 nM |
| OC[C@@]12C[C@@H]1[C@@H](n1cnc3c(NCc4cccc(I)c4)nc(Cl)nc31)[C@H](O)[C@@H]2O | 0.67 nM | 63 | 141 nM | 91% | 142 nM | – | 22% | 732 nM | 48% | Ki (Adenosine receptor A2b): 41 µM; EC50 (Adenosine receptor A1 [10]): 684 nM |
| Nc1ncnc2c1ncn2[C@@H]1O[C@H](CO)[C@@H](O)[C@H]1O [ADENOSINE] | – | – | – | – | – | – | – | – | – | Ki (Adenosine receptor A3 [16]): 1000 nM |
| Nc1ncnc2c1ncn2[C@@]12C[C@H]1[C@H](CO)[C@@H](O)[C@H]2O | – | > 1 | – | – | – | – | – | – | – | Displacement [12]: 20%; Ki (Adenosine receptor A2a [13]): > 100 µM; Ki (Adenosine receptor A3 [14]): 62.5 µM; Displacement [17]: 15% |
| OC[C@H]1O[C@@H](n2cnc3c(NCc4cccc(I)c4)ncnc32)[C@H](O)[C@@H]1O | – | – | – | 91% | – | – | 100% | – | 95% | – |
